The values that follow come from the supplement of paper PMC10307832.

What all share (experiment): relative viability (nuclei count vs DMSO), 5 days (fraction); higher = more cells survive
Compound in test [1]: Cc1ccc2nc(NCCN)c3ncc(C)n3c2c1 + CC(=O)Nc1cccc(-n2c(=O)n(C3CC3)c(=O)c3c(Nc4ccc(I)cc4F)n(C)c(=O)c(C)c32)c1 [Trametinib] (partner 0.02 µM)
The essentials: (§1)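 Relative viability was taken as the ratio of nuclei in treated wells to nuclei in vehicle wells. Lung cancer cell lines in 1536-well plates received compounds by pin tool one day after seeding, either one drug alone or a fixed anchor-drug dose plus five library-drug doses (not always all listed) in √10 steps. Nuclei were counted on 4× images after 5 days of treatment, and values are medians of duplicate plates.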

Compound in test [2]: Cc1ccc2nc(NCCN)c3ncc(C)n3c2c1 + N=C(N)NC(=N)NCCc1ccccc1 [Phenformin] (partner 250 µM)
The gist of the method: as §1

Compound in the test “Salubrinal + Vorinostat”: O=C(/C=C/c1ccccc1)NC(NC(=S)Nc1cccc2cccnc12)C(Cl)(Cl)Cl [Salubrinal] + O=C(CCCCCCC(=O)Nc1ccccc1)NO [Vorinostat] (partner 1 µM)
The essentials: as §1

Compound in test [3]: Cc1ccc2nc(NCCN)c3ncc(C)n3c2c1 + Cc1nc(NC(=O)N2CCC[C@H]2C(N)=O)sc1-c1ccnc(C(C)(C)C(F)(F)F)c1 [Alpelisib] (partner 2 µM)
The essentials:
as §1

As for HCC-366, the relative viability was found to be 0.385 in test [1] (first compound 0.04 µM); 0.395 in test [1] (first compound 0.1265 µM); 0.369 in test [1] (first compound 0.4 µM); 0.336 in test [1] (first compound 1.265 µM); 0.284 in test [1] (first compound 4 µM); 0.588 in test [2] (first compound 0.04 µM). Also, the relative viability in test [2] (first compound 0.1265 µM) was 0.609; in test [2] (first compound 0.4 µM), 0.638; in test [2] (first compound 1.265 µM), 0.606; in test [2] (first compound 4 µM), 0.537; with Salubrinal + Vorinostat (first compound 0.08 µM), 0.494; with Salubrinal + Vorinostat (first compound 0.8 µM) it was 0.443. The relative viability is 0.364 in the test with Salubrinal + Vorinostat (first compound 2.53 µM); 0.345 in the test with Salubrinal + Vorinostat (first compound 8 µM); 0.552 in test [3] (first compound 0.04 µM); 0.329 in test [3] (first compound 0.1265 µM); 0.455 in test [3] (first compound 0.4 µM); 0.433 in test [3] (first compound 1.265 µM). Besides, in test [3] (first compound 4 µM), the relative viability was 0.276.

In the case of HCC-827, the relative viability in test [1] (first compound 0.04 µM) worked out at 0.557; in test [1] (first compound 0.1265 µM), 0.51; in test [1] (first compound 0.4 µM), 0.539; in test [1] (first compound 1.265 µM), 0.626; in test [1] (first compound 4 µM), 0.555; in test [2] (first compound 0.04 µM) it was 0.409. In addition, the relative viability amounted to 0.402 in test [2] (first compound 0.1265 µM); 0.401 in test [2] (first compound 0.4 µM); 0.39 in test [2] (first compound 1.265 µM); 0.384 in test [2] (first compound 4 µM); 0.838 with Salubrinal + Vorinostat (first compound 0.08 µM); 0.917 with Salubrinal + Vorinostat (first compound 0.253 µM). Also, the relative viability with Salubrinal + Vorinostat (first compound 0.8 µM) amounted to 0.965; in the test with Salubrinal + Vorinostat (first compound 2.53 µM), 0.788; with Salubrinal + Vorinostat (first compound 8 µM), 0.785; in test [3] (first compound 0.04 µM) it was 0.964; in test [3] (first compound 0.1265 µM), 1.02; in test [3] (first compound 0.4 µM), 0.941. The relative viability in test [3] (first compound 1.265 µM) worked out at 0.958; in test [3] (first compound 4 µM), 0.905.

For the cell line HOP-62, the relative viability in test [1] (first compound 0.04 µM) came out at 0.41; in test [1] (first compound 0.1265 µM) it was 0.374; in test [1] (first compound 0.4 µM) it was 0.376; in test [1] (first compound 1.265 µM) it was 0.387; in test [1] (first compound 4 µM) it was 0.328; in test [2] (first compound 0.04 µM) it was 0.676. In addition, the relative viability turned out to be 0.643 in test [2] (first compound 0.1265 µM); 0.575 in test [2] (first compound 0.4 µM); 0.657 in test [2] (first compound 1.265 µM); 0.653 in test [2] (first compound 4 µM); 0.657 with Salubrinal + Vorinostat (first compound 0.08 µM); 0.498 in the test with Salubrinal + Vorinostat (first compound 0.253 µM). Further, the relative viability with Salubrinal + Vorinostat (first compound 0.8 µM) came to 0.627; in the test with Salubrinal + Vorinostat (first compound 2.53 µM), 0.563; in the test with Salubrinal + Vorinostat (first compound 8 µM) it was 0.616; in test [3] (first compound 0.04 µM), 0.981; in test [3] (first compound 0.1265 µM), 0.946; in test [3] (first compound 0.4 µM), 0.942. Further, the values for the relative viability in test [3] (first compound 1.265 µM) and in test [3] (first compound 4 µM) were 0.667 and 0.975, respectively.

Turning to IA-LM, the relative viability came out at 0.974 with Salubrinal + Vorinostat (first compound 0.08 µM); 0.645 with Salubrinal + Vorinostat (first compound 0.253 µM); 0.882 with Salubrinal + Vorinostat (first compound 0.8 µM); 0.816 with Salubrinal + Vorinostat (first compound 2.53 µM); 1.03 in the test with Salubrinal + Vorinostat (first compound 8 µM); 0.762 in test [3] (first compound 0.04 µM). In addition, the relative viability is 0.738 in test [3] (first compound 0.1265 µM), 0.682 in test [3] (first compound 0.4 µM), 0.913 in test [3] (first compound 1.265 µM) and 0.804 in test [3] (first compound 4 µM).

As for LC-2-ad, the relative viability in test [1] (first compound 0.04 µM) amounted to 0.927; in test [1] (first compound 0.1265 µM), 0.963; in test [1] (first compound 0.4 µM), 0.881; in test [1] (first compound 1.265 µM), 0.965; in test [1] (first compound 4 µM), 0.86; in test [2] (first compound 0.04 µM), 0.637. Further, the relative viability in test [2] (first compound 0.1265 µM) was determined as 0.546; in test [2] (first compound 0.4 µM) it was 0.55; in test [2] (first compound 1.265 µM), 0.547; in test [2] (first compound 4 µM) it was 0.44; in the test with Salubrinal + Vorinostat (first compound 0.08 µM), 0.735; in the test with Salubrinal + Vorinostat (first compound 0.253 µM) it was 0.644. For the same cell line, the relative viability with Salubrinal + Vorinostat (first compound 0.8 µM) came out at 0.692; with Salubrinal + Vorinostat (first compound 2.53 µM), 0.651; with Salubrinal + Vorinostat (first compound 8 µM), 0.665; in test [3] (first compound 0.04 µM) it was 0.953; in test [3] (first compound 0.1265 µM) it was 0.827; in test [3] (first compound 0.4 µM) it was 0.86. The relative viability in test [3] (first compound 1.265 µM) was 1; in test [3] (first compound 4 µM) it was 0.875.

With LCLC-97TM1, the relative viability was 0.194 in test [1] (first compound 0.04 µM); 0.212 in test [1] (first compound 0.1265 µM); 0.196 in test [1] (first compound 0.4 µM); 0.189 in test [1] (first compound 1.265 µM); 0.186 in test [1] (first compound 4 µM); 0.38 in test [2] (first compound 0.04 µM). Also, the relative viability in test [2] (first compound 0.1265 µM) turned out to be 0.427; in test [2] (first compound 0.4 µM), 0.435; in test [2] (first compound 1.265 µM), 0.465; in test [2] (first compound 4 µM), 0.435; with Salubrinal + Vorinostat (first compound 0.08 µM), 0.751; with Salubrinal + Vorinostat (first compound 0.253 µM), 0.739. The relative viability with Salubrinal + Vorinostat (first compound 0.8 µM) stood at 1.04; in the test with Salubrinal + Vorinostat (first compound 2.53 µM) it was 0.939; with Salubrinal + Vorinostat (first compound 8 µM), 0.656; in test [3] (first compound 0.04 µM), 0.321; in test [3] (first compound 0.1265 µM), 0.241; in test [3] (first compound 0.4 µM), 0.225. The figures for the relative viability in test [3] (first compound 1.265 µM) and in test [3] (first compound 4 µM) were 0.183 and 0.194, respectively.

Regarding LCLC-103H, the relative viability in test [1] (first compound 0.04 µM) stood at 0.727; in test [1] (first compound 0.1265 µM), 0.677; in test [1] (first compound 0.4 µM), 0.65; in test [1] (first compound 1.265 µM), 0.66; in test [1] (first compound 4 µM), 0.67; in test [2] (first compound 0.04 µM), 0.342. In addition, the relative viability is 0.349 in test [2] (first compound 0.1265 µM); 0.332 in test [2] (first compound 0.4 µM); 0.365 in test [2] (first compound 1.265 µM); 0.348 in test [2] (first compound 4 µM); 0.725 in the test with Salubrinal + Vorinostat (first compound 0.08 µM); 0.716 with Salubrinal + Vorinostat (first compound 0.253 µM). Moreover, the relative viability with Salubrinal + Vorinostat (first compound 0.8 µM) turned out to be 0.891; in the test with Salubrinal + Vorinostat (first compound 2.53 µM) it was 0.714; with Salubrinal + Vorinostat (first compound 8 µM) it was 0.748; in test [3] (first compound 0.04 µM) it was 0.996; in test [3] (first compound 0.1265 µM), 0.938; in test [3] (first compound 0.4 µM), 0.94. In addition, the relative viability in test [3] (first compound 1.265 µM) amounted to 0.884; in test [3] (first compound 4 µM) it was 0.991.

LK-2: the relative viability in test [1] (first compound 0.04 µM) worked out at 0.921; in test [1] (first compound 0.1265 µM) it was 0.576; in test [1] (first compound 0.4 µM), 0.682; in test [1] (first compound 1.265 µM), 0.617; in test [1] (first compound 4 µM), 0.672; in test [2] (first compound 0.04 µM), 0.358. The relative viability stood at 0.559 in test [2] (first compound 0.1265 µM); 0.307 in test [2] (first compound 0.4 µM); 0.325 in test [2] (first compound 1.265 µM); 0.415 in test [2] (first compound 4 µM); 0.257 with Salubrinal + Vorinostat (first compound 0.08 µM); 0.279 in the test with Salubrinal + Vorinostat (first compound 0.253 µM). Moreover, the relative viability is 0.356 with Salubrinal + Vorinostat (first compound 0.8 µM); 0.395 with Salubrinal + Vorinostat (first compound 2.53 µM); 0.325 with Salubrinal + Vorinostat (first compound 8 µM); 1.07 in test [3] (first compound 0.04 µM); 1.08 in test [3] (first compound 0.1265 µM); 0.935 in test [3] (first compound 0.4 µM). For the same cell line, the figures for the relative viability in test [3] (first compound 1.265 µM) and in test [3] (first compound 4 µM) were 1.05 and 0.864, respectively.
